According to patent publication EP0590919A1, “Therapeutic agents for parkinson's disease” (KYOWA HAKKO KOGYO CO., LTD., priority 1992, dated 1994):

Tests used:
dd-strain male mice = test: Acute toxicity test (minimum lethal dose, oral); format: in vivo; settings: oral administration, three mice per group, mortality seven days after administration
Experimental: Test compounds were orally administered to groups of dd-strain male mice weighing 20 ± 1 g, each group consisting of three mice. Seven days after the administration, minimum lethal dose (MLD) of each compound was determined by observing the mortality.

A₂ receptor = molecular target: T1, A₂ receptor (Rattus norvegicus, UniProt P30543); test: Adenosine A₂ receptor binding test (³H-CGS 21680 binding); settings: [^3H]CGS 21680 was used, rat corpus striatum, read-out: A2 Receptor Inhibition (%); for inhibition at 1 µM: 10^-6M; for inhibition at 0.1 µM: 10^-7M
T1 construct: from tissue; host or cells: rat corpus striatum membrane preparation
T1 sequence (P30543 whole entry): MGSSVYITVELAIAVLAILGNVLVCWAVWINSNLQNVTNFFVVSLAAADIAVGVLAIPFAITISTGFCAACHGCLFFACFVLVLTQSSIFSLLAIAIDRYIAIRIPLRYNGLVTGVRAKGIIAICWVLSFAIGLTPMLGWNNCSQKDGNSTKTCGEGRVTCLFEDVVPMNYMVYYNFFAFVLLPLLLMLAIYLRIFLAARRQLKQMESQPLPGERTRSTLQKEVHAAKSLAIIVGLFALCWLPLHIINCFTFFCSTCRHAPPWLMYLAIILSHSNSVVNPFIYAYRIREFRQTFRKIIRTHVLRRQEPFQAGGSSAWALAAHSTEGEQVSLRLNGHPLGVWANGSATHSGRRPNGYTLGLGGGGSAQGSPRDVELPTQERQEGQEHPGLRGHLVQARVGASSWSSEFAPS
Experimental: The similar procedure as in the above-described adenosine A₁ receptor binding test was repeated using rat corpus striatum to obtain the final precipitate of the tissue thereof. The precipitate was suspended in 50 mM Tris HCl buffer containing 10 mM magnesium chloride and 0.02 unit/mg tissue of adenosine deaminase (manufactured by Sigma Co.) to give a tissue concentration of 5 mg (wet weight)/ml.
The similar procedure as above was repeated to determine the radioactivity bound to the A₂ receptors using 50 µl of CGS 21680 labeled with tritium [³H-2-[p-(2-carboxyethyl)-phenethylamino]-5'-(N-ethylcarboxamide)adenosine: 40 Ci/mmol, manufactured by New England Nuclear Co. (J. Pharmacol. Exp. Ther., 251, 888 (1989)] (final concentration: 4.0 nM) in place of 50 µl of the mixture of N-ethylcarboxamidoadenosine labeled with tritium (³H-NECA: 26 Ci/mmol, manufactured by Amersham Co.) (final concentration: 3.8 nM) and cyclopentyladenosine (CPA, manufactured by Sigma Co.) (final concentration: 50 nM).
The inhibition rate of the test compound against the binding of A₂ receptors (³H-CGS 21680 binding) was calculated by the following equation: [formula] [Notes] • 1. "B" means the amount of radioactivity of ³H-CGS 21680 bound in the presence of a test compound at a concentration shown in Table 4. • 2. "T" means the amount of radioactivity of ³H-CGS 21680 bound in the absence of a test compound. • 3. "N" means the amount of radioactivity of ³H-CGS 21680 bound in the presence of 100 µM CPA.

[1] = test system: Haloperidol-Induced Catalepsy; test: Effect on haloperidol-induced catalepsy; format: in vivo, mice; settings: 10 mg/kg orally; for Number of the Animals Showing Remission: of five mice, catalepsy score not more than 4 points; for Remission Rate (%): rate of decrease in total score based on control group; for Total Score: total catalepsy score of five mice (25 points at the full), haloperidol 1.0 mg/kg i.p.
Experimental: Haloperidol (Janssen Pharmaceutica) suspended in 0.3% CMC was intraperitoneally administered to each mouse at a dose of 1.0 mg/kg. Test compounds were suspended in 0.3% CMC or in injectable distilled water (Otsuka Pharmaceutical Co., Ltd.) containing Tween 80. L-DOPA (Kyowa Hakko Kogyo Co., Ltd.) and benserazide hydrochloride (Kyowa Hakko Kogyo Co., Ltd.) were suspended in 0.3% CMC. One hour after the haloperidol administration, the test compound suspensions and the control suspension [injectable distilled water (Otsuka Pharmaceutical Co., Ltd.) containing Tween 80] containing no test compound were orally administered to separate groups of the mice (0.1 ml per 10 g of body weight). One hour after the administration of the test compound, the forelimbs of each mouse and subsequently the hindlimbs of the same mouse were placed on a 4.5 cm-high, 1.0 cm-wide bar and catalepsy was estimated. […] The catalepsy score and the standard of judgment are shown below. […] The number of the animals showing remission against catalepsy is the number of the mice for which the catalepsy score was not more than 4 points. […] The ED₅₀ values were calculated by Probit analysis.

SMILES | MLD (dd-strain male mice) [mg/kg] | inhibition at 1 µM (A₂ receptor) [%] | inhibition at 0.1 µM (A₂ receptor) [%] | Number of the Animals Showing Remission [1] | Remission Rate (%) [1] [%] | Total Score [1]
CCn1c(=O)c2c(nc(/C=C/c3cccc(OC)c3)n2C)n(CC)c1=O [Compound 40, (E)-1,3-Diethyl-8-(3-methoxystyryl)-7-methylxanthine] | > 300 | 98 | 88 | 5 | 88 | 3
CCn1c(=O)c2c(nc(/C=C/c3ccc(C)cc3)n2C)n(CC)c1=O [Compound 44, (E)-1,3-Diethyl-7-methyl-8-(4-methylstyryl)xanthine] | > 100 | 103 | 64 | 3 | 32 | 17
CCn1c(=O)c2c(nc(/C=C/c3cccc(OC)c3[N+](=O)[O-])n2C)n(CC)c1=O [Compound 64, (E)-1,3-Diethyl-8-(3-methoxy-2-nitrostyryl)-7-methylxanthine] | > 100 | 94 | 89 | 4 | 36 | 16
CCn1c(=O)c2c(nc(/C=C/c3ccc(Br)cc3)n2C)n(CC)c1=O [Compound 78, (E)-8-(4-Bromostyryl)-1,3-diethyl-7-methylxanthine] | > 100 | 89 | 68 | 3 | 28 | 18
CCn1c(=O)c2c(nc(/C=C/c3ccc(OCOC)cc3)n2C)n(CC)c1=O [Compound 82, (E)-1,3-Diethyl-8-(4-methoxymethoxystyryl)-7-methylxanthine] | > 100 | 98 | 86 | 5 | 64 | 9
CCn1c(=O)c2c(nc(/C=C/c3ccc(F)cc3)n2C)n(CC)c1=O [Compound 84, (E)-1,3-Diethyl-8-(4-fluorostyryl)-7-methylxanthine] | > 100 | 100 | 82 | 4 | 32 | 17
CCn1c(=O)c2c(nc(/C=C/c3cc(C(F)(F)F)cc(C(F)(F)F)c3)n2C)n(CC)c1=O [Compound 86, (E)-8-[3,5-Bis(trifluoromethyl)styryl]-1,3-diethyl-7-methylxanthine] | > 100 | 73 | 29 | 3 | 36 | 16
CCn1c(=O)c2c(nc(/C=C/c3cccc([N+](=O)[O-])c3)n2C)n(CC)c1=O [Compound 90, (E)-1,3-Diethyl-7-methyl-8-(3-nitrostyryl)xanthine] | > 100 | 94 | 85 | 4 | 44 | 14
CCn1c(=O)c2c(nc(/C=C/c3cccc(Br)c3)n2C)n(CC)c1=O [Compound 92, (E)-8-(3-Bromostyryl)-1,3-diethyl-7-methylxanthine] | > 100 | 103 | 93 | 4 | 52 | 12
CCn1c(=O)c2c(nc(/C=C/c3ccc(OC)c(F)c3)n2C)n(CC)c1=O [Compound 103, (E)-1,3-Diethyl-8-(3-fluoro-4-methoxystyryl)-7-methylxanthine] | > 100 | 102 | 75 | 3 | 36 | 16
CCn1c(=O)c2c(nc(/C=C/c3ccc(F)c(Cl)c3)n2C)n(CC)c1=O [Compound 105, (E)-8-(3-Chloro-4-fluorostyryl)-1,3-diethyl-7-methylxanthine] | > 100 | 96 | 76 |  |  | 
CCn1c(=O)c2[nH]c(/C=C/c3cc(OC)c4c(c3)OCO4)nc2n(CC)c1=O [Compound 106, (E)-1,3-Diethyl-8-(3-methoxy-4,5-methylenedioxystyryl)xanthine] | > 100 | 94 | 83 |  |  | 
CCn1c(=O)c2[nH]c(/C=C/c3cccc(F)c3C)nc2n(CC)c1=O [Compound 108, (E)-1,3-Diethyl-8-(3-fluoro-2-methylstyryl)xanthine] | > 100 | 94 | 87 |  |  | 
CCn1c(=O)c2c(nc(/C=C/c3cccc(F)c3C)n2C)n(CC)c1=O [Compound 109, (E)-1,3-Diethyl-8-(3-fluoro-2-methylstyryl)-7-methylxanthine] | > 100 | 96 | 97 | 5 | 84 | 4
CCn1c(=O)c2c(nc(/C=C/c3ccc(O)c(O)c3)n2C)n(CC)c1=O [Compound 110, (E)-8-(3,4-Dihydroxystyryl)-1,3-diethyl-7-methylxanthine] | > 100 | 96 | 61 | 3 | 20 | 20
CCn1c(=O)c2c(nc(/C=C/c3ccc(O)cc3)n2C)n(CC)c1=O [Compound 112, (E)-1,3-Diethyl-8-(4-hydroxystyryl)-7-methylxanthine] | > 100 | 95 | 79 | 5 | 84 | 4
CCn1c(=O)c2c(nc(/C=C/c3ccc(OCc4ccccc4)cc3)n2C)n(CC)c1=O [Compound 113, (E)-8-(4-Benzyloxystyryl)-1,3-diethyl-7-methylxanthine] | > 100 | 68 | 34 | 3 | 24 | 19
CCn1c(=O)c2c(nc(/C=C/c3ccc(OCCCCBr)cc3)n2C)n(CC)c1=O [Compound 114, (E)-8-[4-(4-Bromobutoxy)styryl]-1,3-diethyl-7-methylxanthine] | > 100 | 87 | 23 |  |  | 
CCn1c(=O)c2c(nc(/C=C/c3ccc(OCCCCN=[N+]=[N-])cc3)n2C)n(CC)c1=O [Compound 115, (E)-8-[4-(4-Azidobutoxy)styryl]-1,3-diethyl-7-methylxanthine] | > 100 | 79 | 34 |  |  | 
CCn1c(=O)c2c(nc(/C=C/c3cccc(Oc4ccccc4)c3)n2C)n(CC)c1=O [Compound 120, (E)-1,3-Diethyl-7-methyl-8-(3-phenoxystyryl)xanthine] | > 100 | 75 | 89 |  |  | 
